Patent publication US9221784B2, “Benzo[1,3]dioxine derivatives and their use as LPAR5 antagonists” (SANOFI, priority 2012, dated 2015)

Key:
Format in all cases: cell-based
[1] = target: T1, LPA receptor LPAR5 (Homo sapiens, UniProt Q9H1C0); assay: FLIPR assay, intracellular Ca2+ release in human mast cell line HMC-1; set-up: two cell lines were used with high LPAR5 expression; endogenous in cells; host or cells: HMC-1 human mast cell line; details: human mast cell line HMC-1, LPA-stimulated Ca2+ release, test compounds added 10 minutes prior LPA
Source text: (§1) B) Use of the Fluorometric Imaging Plate Reader (FLIPR) Assay for the Determination of Intracellular Ca^2+ Release in Human Mast Cell Line HMC-1 and the Murine Microglia Cell Line BV-2
(§2) The ability of the compounds of the formula I to inhibit or bind the LPA receptor LPAR5 can be assessed by determining the intracellular Ca^2+ release in human or animal cells. For the analysis of activating potential of LPA and the inhibitory effects of compounds of the formula I two cell lines were used with high LPAR5 expression, the human mast cell line HMC-1 and the murine microglia cell line BV-2 (Figures 1 and 2). For the FLIPR assay using human mast cells in a 96-well-format, HMC-1 suspension cells from flask culture were harvested, resuspended and counted. 14×10^6 HMC-1 cells were transferred into a new 50 ml tube, centrifuged for 3 minutes at 540×g. The resulting cell pellet at the bottom of the tube was resuspended with 15 ml loading buffer (loading buffer contained HBSS buffer (pH 7.4), 0.1% BSA (bovine serum albumin), 2 μM FLUO-4 dye; HBSS buffer (pH 7.4) contained 1×HBSS, 20 mM HEPES, 0.01% Pluronic F-127, 2.5 mM Probenicid).
Cells in loading buffer were incubated for 45-60 minutes at 37° C. After incubation cells were centrifuged for 3 minutes at 540×g and resuspended with 21 ml of HBSS buffer (pH 7.4). Each well of a poly-D-lysine coated 96-well-plate was filled with 150 μl cell solution, an equivalent of 100 000 cells/well. The 96-well-plate was centrifuged for 2 minutes at 100×g (without brake) prior a recovery time of 30 minutes at 37° C. After this procedure cells were stimulated with LPA (in HBSS pH 7.4 and 0.1% BSA) to determine the EC50 of LPA in HMC-1 cells. For the determination of the inhibitory effect of compounds of the formula I, test compounds were added to the cells in the 96-well-plate 10 minutes prior the addition of LPA. Results of the assay are expressed as % activation, and are calculated using maximum peak of activation (Amax). The IC50 data of the above described FLIPR assay using human mast cell line HMC-1 for exemplary compounds of the present invention are shown in Table 2. Adherent BV-2 cells were seeded onto poly-D-lysine coated 96-well-plates (100000 cells/well) the day before performing the FLIPR assay. The density of the cells in the 96-well-plate at the day of the FLIPR assay should be 90%. After aspiration of the culture media, BV-2 cells were incubated for 30 minutes at 37° C. with loading buffer and recovered in 150 μl HBSS buffer for 30 minutes at 37° C. After this procedure cells were stimulated with LPA (in HBSS pH 7.4 and 0.1% BSA) to determine the EC50 of LPA in BV-2 cells. For the determination of the inhibitory effect of compounds of the formula I, test compounds were added to the cells in the 96-well-plate 10 minutes prior the addition of LPA. The IC50 data of the above described FLIPR assay using the murine microglia cell line BV-2 for exemplary compounds of the present invention are shown in Table 3.

[2] = target: T1, LPA receptor LPAR5; assay: Aggregation assay for washed human blood platelets (LPA-induced); details: reduction of the maximal aggregation, 5 minutes incubation at 37° C.
Protocol: A) Aggregation Assay for Washed Human Blood Platelets (Thrombocytes)
Whole blood was collected from healthy volunteers using 3×20 ml syringes containing each 1/10 volume of buffered citrate. The anticoagulated whole blood was transferred into 50 ml polypropylene conical tubes (30 ml per tube). The tubes were centrifuged for 10 minutes at 150×g at room temperature without using the centrifuge brake. This procedure results in a lower phase of cellular components and a supernatant (upper phase) of platelet rich plasma (PRP). The PRP phase was collected from each tube and pooled for each donor. To avoid carry over of cellular components following first centrifugation, approximately 5 ml of PRP was left in the tube. The platelet concentration was determined using a ABX Micros 60 counter. The PRP phase was transferred to a new 50 ml tube. After 10 minutes standing at room temperature, 1 μl PGI2 (1 mM in Tris-HCl/pH 8.8) and 180 μl ACD/A were added per ml PRP. The PRP was then transferred to new 10 ml tube and centrifuged for 10 minutes at 500×g. After centrifugation a cellular pellet is visible at the bottom of the tube. The supernatant was carefully discarded and the cellular pellet, consisting of human blood platelets was then dissolved in 10 ml buffer T (buffer T composition: 145 mM NaCl, 5 mM KCl, 0.1 mM MgCl2×6 H2O, 15 mM HEPES, 5.5 mM glucose, pH 7.4). Platelet concentration in this solution was determined and buffer T was added to obtain a final concentration of 3.5×10^5 platelets per ml.
After 10 minutes at room temperature, 1 μl PGI2 per ml platelet solution was added and distributed into new 10 ml tubes. After a centrifugation step, 10 minutes at 500×g, supernatant was discarded and the platelets were resuspended in buffer T to a final concentration of 3.5×10^5 platelets per ml buffer T. Before use, platelet-containing buffer equilibrated for 30 minutes at room temperature. The human platelet aggregation assay was performed in single use cuvettes using the Platelet Aggregation Profiler® (PAP-4 or -8E, BIO/DATA Corporation). For a single experiment, 320 μl of platelet solution were transferred into an assay cuvette, 20 μl of calcium citrate solution (10 mM in H2O) and 20 μl of fibrinogen solution (20 mg/ml H2O) were added. The aggregation assay was performed in the assay cuvette at 37° C. and with 1.200 rpm stirring. To determine the EC50, eight assay cuvettes were loaded as described above with different concentrations of LPA. Aggregation was measured over 6 minutes at 37° C. with 1200 rpm (revolutions per minute) stirring. Results of the assay are expressed as % activation, and are calculated using maximum aggregation (Tmax) or area under curve (AUC) of the absorbance over 6 minutes. The inhibitory effect (IC50) of the test compounds was determined as the reduction of the maximal aggregation. Test compound was added prior starting the experiment with an incubation time of the test compound of 5 minutes at 37° C. with 1200 rpm stirring. The IC50 data of the above described platelet aggregation assay using human washed platelets for exemplary compounds of the present invention are shown in Table 1.

[3] = target: T2, LPA receptor LPAR5 (Mus musculus, UniProt Q149R9); assay: FLIPR assay, intracellular Ca2+ release in murine microglia cell line BV-2; details: murine microglia cell line BV-2, LPA-stimulated Ca2+ release, test compounds added 10 minutes prior LPA
T2 construct: two cell lines were used with high LPAR5 expression; endogenous in cells; host or cells: BV-2 murine microglia cell line
Source text: as §1, §2
Cells in loading buffer were incubated for 45-60 minutes at 37° C. After incubation cells were centrifuged for 3 minutes at 540×g and resuspended with 21 ml of HBSS buffer (pH 7.4). Each well of a poly-D-lysine coated 96-well-plate was filled with 150 μl cell solution, an equivalent of 100 000 cells/well. The 96-well-plate was centrifuged for 2 minutes at 100×g (without brake) prior a recovery time of 30 minutes at 37° C. After this procedure cells were stimulated with LPA (in HBSS pH 7.4 and 0.1% BSA) to determine the EC50 of LPA in HMC-1 cells. For the determination of the inhibitory effect of compounds of the formula I, test compounds were added to the cells in the 96-well-plate 10 minutes prior the addition of LPA. Results of the assay are expressed as % activation, and are calculated using maximum peak of activation (Amax). […]

T1 sequence (Q9H1C0 whole entry): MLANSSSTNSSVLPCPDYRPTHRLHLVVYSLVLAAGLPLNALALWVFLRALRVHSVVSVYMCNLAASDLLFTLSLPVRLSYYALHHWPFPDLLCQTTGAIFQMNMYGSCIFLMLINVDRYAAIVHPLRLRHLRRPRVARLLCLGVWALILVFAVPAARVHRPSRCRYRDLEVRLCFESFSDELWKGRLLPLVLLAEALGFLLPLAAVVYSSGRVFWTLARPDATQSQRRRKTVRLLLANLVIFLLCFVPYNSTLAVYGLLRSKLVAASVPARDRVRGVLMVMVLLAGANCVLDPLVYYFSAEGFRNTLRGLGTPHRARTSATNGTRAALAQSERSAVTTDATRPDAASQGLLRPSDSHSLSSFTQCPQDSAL
T2 sequence (Q149R9 whole entry): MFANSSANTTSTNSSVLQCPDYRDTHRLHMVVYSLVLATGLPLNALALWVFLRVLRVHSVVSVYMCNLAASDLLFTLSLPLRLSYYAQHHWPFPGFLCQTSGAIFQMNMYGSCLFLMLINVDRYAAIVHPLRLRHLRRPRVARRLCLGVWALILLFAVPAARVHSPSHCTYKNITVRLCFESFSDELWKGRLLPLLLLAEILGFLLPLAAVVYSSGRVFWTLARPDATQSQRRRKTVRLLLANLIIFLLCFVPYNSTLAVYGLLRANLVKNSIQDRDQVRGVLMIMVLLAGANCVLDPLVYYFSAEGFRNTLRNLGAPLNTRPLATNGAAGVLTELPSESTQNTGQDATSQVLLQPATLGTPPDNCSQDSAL

IC50 [1] [µM]	IC50 [2] [µM]	IC50 [3] [µM]	SMILES
3.3			O=C(O)C1Oc2ccc3ccccc3c2C(C2CCCCC2)(C2CCCCC2)O1 (centres unmarked) [Example 33, 1,1-Dicyclohexyl-1H-naphtho[2,1-d][1,3]dioxine-3-carboxylic acid]
3.2	5.4		O=C(O)C1Oc2c(OC(F)(F)F)cccc2C(C2CCCCC2)(C2CCCCC2)O1 (centres unmarked) [Example 46, 4,4-Dicyclohexyl-8-trifluoromethoxy-4H-benzo[1,3]dioxine-2-carboxylic acid]
2.6			O=C(O)C1Oc2ccc(Oc3ccc(Cl)cc3)cc2C(C2CCCCC2)(C2CCCCC2)O1 (centres unmarked) [Example 22, 6-(4-Chloro-phenoxy)-4,4-dicyclohexyl-4H-benzo[1,3]dioxine-2-carboxylic acid]
2.4			O=C(O)C1Oc2ccc(Cl)cc2C(C2CCCCCC2)(C2CCCCCC2)O1 (centres unmarked) [Example 55, 6-Chloro-4,4-dicycloheptyl-4H-benzo[1,3]dioxine-2-carboxylic acid]
		8	Cc1cccc2c1OC(C(=O)O)OC2(C1CCCCC1)C1CCCCC1 (centres unmarked) [Example 12, 4,4-Dicyclohexyl-8-methyl-4H-benzo[1,3]dioxine-2-carboxylic acid]
3.3			Cc1cc2c(cc1Cl)C(C1CCCCC1)(C1CCCCC1)OC(C(=O)O)O2 (centres unmarked) [Example 43, 6-Chloro-4,4-dicyclohexyl-7-methyl-4H-benzo[1,3]dioxine-2-carboxylic acid]
3.1			O=C(O)C1Oc2ccc3c(c2C(C2CCCCC2)(C2CCCCC2)O1)CCCC3 (centres unmarked) [Example 45, 1,1-Dicyclohexyl-7,8,9,10-tetrahydro-1H-naphtho[2,1-d][1,3]dioxine-3-carboxylic acid]
	2.4		COc1cc(C)c2c(c1)OC(C(=O)O)OC2(C1CCCCC1)C1CCCCC1 (centres unmarked) [Example 36, 4,4-Dicyclohexyl-7-methoxy-5-methyl-4H-benzo[1,3]dioxine-2-carboxylic acid]
3.6			Clc1ccc2c(c1)C(C1CCCCC1)(C1CCCCC1)OC(c1nnn[nH]1)O2 (centres unmarked) [Example 60, 5-(6-Chloro-4,4-dicyclohexyl-4H-benzo[1,3]dioxin-2-yl)-1H-tetrazole]
3.4			O=C(c1ccc(Cl)cc1)c1ccc2c(c1)C(C1CCCCC1)(C1CCCCC1)OC(C(=O)O)O2 (centres unmarked) [Example 26, 6-(4-Chloro-benzoyl)-4,4-dicyclohexyl-4H-benzo[1,3]dioxine-2-carboxylic acid]
3.6	11.3		O=C(O)C1Oc2cc(OCc3ccccc3)ccc2C(C2CCCCC2)(C2CCCCC2)O1 (centres unmarked) [Example 37, 7-Benzyloxy-4,4-dicyclohexyl-4H-benzo[1,3]dioxine-2-carboxylic acid]
	5.9		CCOc1cccc2c1C(C1CCCCC1)(C1CCCCC1)OC(C(=O)O)O2 (centres unmarked) [Example 30, 4,4-Dicyclohexyl-5-ethoxy-4H-benzo[1,3]dioxine-2-carboxylic acid]
7.7			O=c1[nH]nc(C2Oc3ccc(Cl)cc3C(C3CCCCC3)(C3CCCCC3)O2)o1 (centres unmarked) [Example 63, 5-(6-Chloro-4,4-dicyclohexyl-4H-benzo[1,3]dioxin-2-yl)-3H-[1,3,4]oxadiazol-2-one]
4.4			COc1cc(OC)c2c(c1)OC(C(=O)O)OC2(C1CCCCC1)C1CCCCC1 (centres unmarked) [Example 7, 4,4-Dicyclohexyl-5,7-dimethoxy-4H-benzo[1,3]dioxine-2-carboxylic acid]
2.5			O=C(O)C1Oc2ccc(Br)cc2C(C2CCCCC2)(C2CCCCC2)O1 (centres unmarked) [Example 50, 6-Bromo-4,4-dicyclohexyl-4H-benzo[1,3]dioxine-2-carboxylic acid]
3.4			O=C(O)C1Oc2cc(-n3cccc3)ccc2C(C2CCCCC2)(C2CCCCC2)O1 (centres unmarked) [Example 2, 4,4-Dicyclohexyl-7-pyrrol-1-yl-4H-benzo[1,3]dioxine-2-carboxylic acid]
1.5		1.5	O=C(O)C1Oc2ccc(OC(F)(F)F)cc2C(C2CCCCC2)(C2CCCCC2)O1 (centres unmarked) [Example 18, 4,4-Dicyclohexyl-6-trifluoromethoxy-4H-benzo[1,3]dioxine-2-carboxylic acid]
3.5			O=C(O)C1Oc2c(Cl)cc(Cl)cc2C(C2CCCCC2)(C2CCCCC2)O1 (centres unmarked) [Example 32, 6,8-Dichloro-4,4-dicyclohexyl-4H-benzo[1,3]dioxine-2-carboxylic acid]
3.6	2.7		CCN(CC)c1ccc2c(c1)OC(C(=O)O)OC2(C1CCCCC1)C1CCCCC1 (centres unmarked) [Example 49, 4,4-Dicyclohexyl-7-diethylamino-4H-benzo[1,3]dioxine-2-carboxylic acid]
3.2			O=c1[nH]c(C2Oc3ccc(Cl)cc3C(C3CCCCC3)(C3CCCCC3)O2)no1 (centres unmarked) [Example 61, 3-(6-Chloro-4,4-dicyclohexyl-4H-benzo[1,3]dioxin-2-yl)-4H-[1,2,4]oxadiazol-5-one]
3.2	1.1	4.1	O=C(O)C1Oc2ccc(Cl)cc2C(C2CCCCC2)(C2CCCCC2)O1 (centres unmarked) [Example 1, 6-Chloro-4,4-dicyclohexyl-4H-benzo[1,3]dioxine-2-carboxylic acid]
3.8			O=C(O)C1Oc2ccc(-c3ccccc3)cc2C(C2CCCCC2)(C2CCCCC2)O1 (centres unmarked) [Example 35, 4,4-Dicyclohexyl-6-phenyl-4H-benzo[1,3]dioxine-2-carboxylic acid]

SMILES	IC50 [1] [µM]	IC50 [2] [µM]	IC50 [3] [µM]
CCCCOc1ccc2c(c1)OC(C(=O)O)OC2(C1CCCCC1)C1CCCCC1 (centres unmarked) [Example 31, 7-Butoxy-4,4-dicyclohexyl-4H-benzo[1,3]dioxine-2-carboxylic acid]	5.2		
